In patent publication US6441195B1, “Substituted sulphonylamino(thio) carbonyl compounds” (Bayer Aktiengesellschaft, priority 1995, dated 2002):

Assays:
Assay type in all cases: in vivo
Lolium = experiment: Pre-emergence test/Greenhouse, Lolium; settings: after three weeks
Protocol: (§1) To produce a suitable preparation of the active compound, 1 part by weight of active compound is mixed with the stated amount of solvent, the stated amount of emulsifier is added and the concentrate is diluted with water to the desired concentration.
(§2) Seeds of the test plants are sown in normal soil. After about 24 hours, the soil is watered with the preparation of active compound. Advantageously, the amount of water per unit area is kept constant. The active compound concentration in the preparation is not important, only the active compound appliation rate per unit area matters.
(§3) After three weeks, the degree of damage to the plants is rated in % damage in comparison to the development of the untreated control.
(§4) 0%=no action (like untreated control)

Matricaria = experiment: Pre-emergence test/Greenhouse, Matricaria; settings: after three weeks
Protocol: as §1, §2, §3, §4

weeds = experiment: Pre-emergence test (greenhouse), activity against weeds; settings: in words
Protocol: Solvent: 5 parts by weight of acetone
Emulsifier: 1 part by weight of alkylaryl polyglycol ether
as §1, §2, §3, §4

Sorghum = experiment: Pre-emergence test/Greenhouse, Sorghum; settings: after three weeks
Protocol: as §1, §2, §3, §4

Solanum = experiment: Pre-emergence test/Greenhouse, Solanum; settings: after three weeks
Protocol: as §1, §2, §3, §4

Maize = experiment: Pre-emergence test/Greenhouse, Maize; settings: in vivo
Protocol: as §1, §2, §3, §4

Poa = experiment: Pre-emergence test/Greenhouse, Poa; settings: after three weeks
Protocol: as §1, §2, §3, §4

Ambrosia = experiment: Pre-emergence test/Greenhouse, Ambrosia; settings: after three weeks
Protocol: as §1, §2, §3, §4

| Compound | degree of damage to the plants (% damage vs untreated control), Lolium (Lolium; 60 g of ai./ha) [%] | degree of damage to the plants (% damage vs untreated control), Matricaria (Matricaria; 60 g of ai./ha) [%] | activity against weeds (weeds) | degree of damage to the plants (% damage vs untreated control), Solanum (Solanum; 60 g of ai./ha) [%] | degree of damage to the plants (% damage vs untreated control), Lolium (Lolium; 125 g of ai./ha) [%] | degree of damage to the plants (% damage vs untreated control), Matricaria (Matricaria; 125 g of ai./ha) [%] | degree of damage to the plants (% damage vs untreated control), Maize (Maize) [%] | degree of damage to the plants (% damage vs untreated control), Sorghum (Sorghum; 125 g of ai./ha) [%] | degree of damage to the plants (% damage vs untreated control), Solanum (Solanum; 125 g of ai./ha) [%] | degree of damage to the plants (% damage vs untreated control), Poa (Poa; 125 g of ai./ha) [%] | further results |
| --- | --- | --- | --- | --- | --- | --- | --- | --- | --- | --- | --- |
| CCSc1nn(C(=O)NS(=O)(=O)c2c(C)csc2C(=O)OC(C)C)c(=O)n1C [Example 81] | 100 | 100 | very strong activity against weeds | 100 |  |  |  |  |  |  | degree of damage to the plants (% damage vs untreated control), Sorghum (Sorghum; 60 g of ai./ha): 95% |
| CCCc1nn(C(=O)NS(=O)(=O)c2c(C)csc2C(=O)OC(C)C)c(=O)n1C [Example 108] |  |  | very strong activity against weeds |  | 90 | 95 | 5 | 95 | 90 |  |  |
| CCCOC(=O)c1scc(C)c1S(=O)(=O)NC(=O)n1nc(OC)n(C)c1=O [Example 89] |  |  | very strong activity against weeds |  | 100 | 100 | 0 | 90 | 100 |  |  |
| CCOC(=O)c1scc(C)c1S(=O)(=O)NC(=O)n1nc(CC)n(C)c1=O [Example 66] |  |  | very strong activity against weeds |  | 100 | 100 | 0 | 100 | 100 |  |  |
| CCCOC(=O)c1scc(C)c1S(=O)(=O)NC(=O)n1nc(OCC)n(C)c1=O [Example 80] |  |  | very strong activity against weeds |  | 95 | 100 | 0 | 90 | 95 |  |  |
| CCCOc1nn(C(=O)NS(=O)(=O)c2c(C)csc2C(=O)OCC)c(=O)n1C [Example 58] |  |  | very strong activity against weeds |  | 80 | 100 | 20 |  | 95 | 95 |  |
| COC(=O)c1cccc(C)c1S(=O)(=O)NC(=O)n1nc(SC)n(C2CC2)c1=O [Example 158] |  |  | very strong activity against weeds |  |  |  |  |  |  |  |  |
| COc1nn(C(=O)NS(=O)(=O)c2c(C)csc2C(=O)OC(C)C)c(=O)n1C [Example 82] | 60 | 100 | very strong activity against weeds | 100 |  |  | 0 |  |  |  | degree of damage to the plants (% damage vs untreated control), Sorghum (Sorghum; 60 g of ai./ha): 90% |
| CCOc1nn(C(=O)NS(=O)(=O)c2c(C)csc2C(=O)OC(C)C)c(=O)n1C1CC1 [Example 85] |  |  | very strong activity against weeds |  | 95 | 100 | 60 | 95 | 100 |  |  |
| CCOC(=O)c1scc(C)c1S(=O)(=O)NC(=O)c1noc(C)n1 [Example 72] |  |  | very strong activity against weeds |  | 90 | 100 | 10 |  | 100 | 70 | degree of damage to the plants (% damage vs untreated control), Ambrosia (Ambrosia; 125 g of ai./ha): 95% |
| CCCc1nn(C(=O)NS(=O)(=O)c2c(C)csc2C(=O)OCC)c(=O)n1C [Example 67] | 100 | 100 | very strong activity against weeds | 100 |  |  | 0 |  |  |  | degree of damage to the plants (% damage vs untreated control), Sorghum (Sorghum; 60 g of ai./ha): 90% |
| CCOC(=O)c1scc(C)c1S(=O)(=O)NC(=O)n1nc(OC(C)C)n(C)c1=O [Example 59] |  |  | very strong activity against weeds |  | 100 | 100 | 0 |  | 95 | 70 | degree of damage to the plants (% damage vs untreated control), Ambrosia (Ambrosia; 125 g of ai./ha): 95% |
| CCCOc1nn(C(=O)NS(=O)(=O)c2c(C)csc2C(=O)OC)c(=O)n1C [Example 33] |  |  | very strong activity against weeds |  |  | 95 | 10 | 80 | 95 | 90 | degree of damage to the plants (% damage vs untreated control), Ambrosia (Ambrosia; 125 g of ai./ha): 90% |
| CCc1nn(C(=O)NS(=O)(=O)c2c(C)csc2C(=O)OC(C)C)c(=O)n1C [Example 77] | 95 | 100 | very strong activity against weeds | 90 |  |  | 0 |  |  |  | degree of damage to the plants (% damage vs untreated control), Sorghum (Sorghum; 60 g of ai./ha): 90% |
| CCOC(=O)c1scc(C)c1S(=O)(=O)NC(=O)n1nc(OCC(F)(F)F)n(C)c1=O [Example 62] |  |  | very strong activity against weeds |  | 80 | 95 | 0 | 60 | 95 | 90 |  |
| CCOC(=O)c1scc(C)c1S(=O)(=O)NC(=O)n1nc(OC)n(C)c1=O [Example 57] | 95 | 95 | very strong activity against weeds | 95 |  |  | 0 |  |  |  | degree of damage to the plants (% damage vs untreated control), Poa (Poa; 60 g of ai./ha): 95%; degree of damage to the plants (% damage vs untreated control), Sorghum (Sorghum; 60 g of ai./ha): 95% |
| CCOC(=O)c1scc(C)c1S(=O)(=O)NC(=O)n1nc(C)n(C)c1=O [Example 65] |  |  | very strong activity against weeds |  | 80 | 95 | 20 | 80 | 95 | 80 |  |
| COC(=O)c1cccc(C)c1S(=O)(=O)NC(=O)c1ncc(C)o1 [Example 121] |  |  | very strong activity against weeds |  |  |  | 10 |  |  |  | degree of damage to the plants (% damage vs untreated control), Lolium (Lolium; 500 g of ai./ha): 70%; degree of damage to the plants (% damage vs untreated control), Matricaria (Matricaria; 500 g of ai./ha): 90%; degree of damage to the plants (% damage vs untreated control), Sorghum (Sorghum; 500 g of ai./ha): 80%; degree of damage to the plants (% damage vs untreated control), Solanum (Solanum; 500 g of ai./ha): 95% |
| CCCOC(=O)c1scc(C)c1S(=O)(=O)NC(=O)n1nc(OCC)n(C2CC2)c1=O [Example 93] | 90 | 95 | very strong activity against weeds | 90 |  |  | 0 |  |  |  | degree of damage to the plants (% damage vs untreated control), Sorghum (Sorghum; 60 g of ai./ha): 80% |
| CCOC(=O)c1scc(C)c1S(=O)(=O)NC(=O)n1nc(OC(C)C)n(C2CC2)c1=O [Example 70] | 90 | 100 | very strong activity against weeds | 100 |  |  | 10 |  |  |  | degree of damage to the plants (% damage vs untreated control), Ambrosia (Ambrosia; 60 g of ai./ha): 90%; degree of damage to the plants (% damage vs untreated control), Poa (Poa; 60 g of ai./ha): 90% |
| COC(=O)c1scc(C)c1S(=O)(=O)NC(=O)n1nc(OC(C)C)n(C2CC2)c1=O [Example 53] |  |  | very strong activity against weeds |  | 95 | 95 | 0 |  | 95 | 95 | degree of damage to the plants (% damage vs untreated control), Ambrosia (Ambrosia; 125 g of ai./ha): 95% |
